Target: T1, Thermolysin (Bacillus thermoproteolyticus, UniProt P00800)
T1 sequence (P00800 whole entry): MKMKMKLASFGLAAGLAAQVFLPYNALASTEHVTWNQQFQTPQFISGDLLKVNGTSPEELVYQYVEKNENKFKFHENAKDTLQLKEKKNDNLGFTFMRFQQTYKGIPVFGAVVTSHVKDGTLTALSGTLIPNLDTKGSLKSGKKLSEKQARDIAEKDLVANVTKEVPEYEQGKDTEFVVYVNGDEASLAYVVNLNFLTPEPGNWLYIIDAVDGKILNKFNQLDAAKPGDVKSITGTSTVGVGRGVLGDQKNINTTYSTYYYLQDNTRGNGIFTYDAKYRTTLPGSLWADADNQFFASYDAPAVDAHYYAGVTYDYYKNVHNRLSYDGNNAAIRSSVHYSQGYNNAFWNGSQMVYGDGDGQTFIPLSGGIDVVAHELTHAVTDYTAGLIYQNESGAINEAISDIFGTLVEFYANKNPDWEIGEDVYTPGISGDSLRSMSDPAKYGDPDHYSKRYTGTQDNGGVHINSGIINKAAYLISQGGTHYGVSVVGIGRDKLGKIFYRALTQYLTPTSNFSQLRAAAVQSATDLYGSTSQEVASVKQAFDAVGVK
Experiment: Inhibitory activity against thermolysin; No inhibitory activity was observed up to concentration of 20 mM

Row | Ki | Compound
1 | No inhibition | CCC(=O)N(O)C[C@@H](Cc1ccccc1)C(=O)NC
2 | No inhibition | CNC(=O)[C@H](Cc1ccccc1)CN(O)C(C)=O

Target: T1, Thermolysin
Experiment: Inhibitory activity against thermolysin

Row | Compound | Ki
3 | CNC(=O)[C@@H](Cc1ccccc1)CN(O)C(C)=O | 3950 µM
4 | CNC(=O)[C@H](Cc1ccccc1)CN(O)C=O | 68.2 µM
5 | CCC(=O)N(O)C[C@H](Cc1ccccc1)C(=O)NC | 7500 µM

More lines, now with the values ahead:

Row | Ki | Compound
6 | 1.66 µM | CNC(=O)[C@@H](Cc1ccccc1)CN(O)C=O
7 | 22.5 µM | COC(=O)[C@@H](CC(C)C)CN(O)C=O
8 | 44 µM | COC(=O)[C@@H](CC(C)C)N(O)C=O

Source: ChEMBL document CHEMBL1130707, “Inhibition stereochemistry of hydroxamate inhibitors for thermolysin” (Bioorg Med Chem Lett, 1998)
